ChEMBL document CHEMBL5126599, “Development of S-aryl dithiocarbamate derived novel antiproliferative compound exhibiting tubulin bundling” (Bioorg Med Chem, 2022)
Active and inactive are the calls of the source. The rule behind the calls is not given here.

What was measured:
A549 = assay: Antiproliferative activity against human A549 cells assessed as reduction in cell viability incubated for 72 hrs by MTT assay; format: functional, cell-based; conditions: A549, 72 h
HeLa [1] = assay: Antiproliferative activity against human HeLa cells assessed as reduction in cell viability incubated for 72 hrs by MTT assay; format: functional, cell-based
MCF7 = assay: Antiproliferative activity against human MCF7 cells assessed as reduction in cell viability incubated for 72 hrs by MTT assay; format: functional, cell-based; conditions: MCF7, 72 h
MDA-MB-231 = assay: Antiproliferative activity against human MDA-MB-231 cells assessed as reduction in cell viability incubated for 72 hrs by MTT assay; format: functional, cell-based; conditions: MDA-MB-231, 72 h
HeLa [2] = assay: Antiproliferative activity against human HeLa cells assessed as reduction in number of colonies at 0.432 to 0.864 uM for 72 hrs with media renew every 2 days and measured upto 2 weeks by crystal violet staining based microscopic analysis; format: functional, cell-based; conditions: dose 0.432-0.864 µM, DDE = dose-dependent effect
HeLa [3] = assay: Induction of cell cycle arrest in human HeLa cells assessed as accumulation at G2/M phase at 0.432 to 0.864 uM for 72 hrs by DAPI staining based fluorescence microscopy; format: functional; conditions: dose 0.432-0.864 µM, DDE = dose-dependent effect
HeLa [4] = assay: Induction of apoptosis in human HeLa cells assessed as fold change as increase in necrotic cells at 0.432 to 0.864 uM for 72 hrs by Annexin-V/PI staining based fluorescence microscopy relative to control; format: functional; conditions: dose 0.432-0.864 µM
HeLa [5] = assay: Induction of cell cycle arrest in human HeLa cells assessed as fold change as increase in accumulation at G2/M phase at 0.432 to 0.864 uM for 72 hrs by PI staining based flow cytometry relative to control; format: functional; conditions: dose 0.432-0.864 µM
HeLa [6] = assay: Induction of apoptosis in human HeLa cells assessed as fold change as increase in apoptotic cells at 0.432 to 0.864 uM for 72 hrs by PI staining based flow cytometry relative to control; format: functional; conditions: dose 0.432-0.864 µM
HeLa [7] = assay: Induction of cell cycle arrest in human HeLa cells assessed as increase in cyclin B1 expression at 0.432 to 0.864 uM for 72 hrs by Western blot analysis; format: functional, cell-based; conditions: dose 0.432-0.864 µM, DDE = dose-dependent effect
HeLa [8] = assay: Induction of apoptosis in human HeLa cells assessed as increase in p53 protein expression at 0.432 to 0.864 uM for 72 hrs by Western blot analysis; format: functional, cell-based; conditions: dose 0.432-0.864 µM, DDE = dose-dependent effect
HeLa [9] = assay: Induction of apoptosis in human HeLa cells assessed as increase in p21 protein expression at 0.432 to 0.864 uM for 72 hrs by Western blot analysis; format: functional, cell-based; conditions: dose 0.432-0.864 µM
Tubulin (Homo sapiens) [10] = molecular target: T1, Tubulin (Homo sapiens) (UniProt P68371+Q9H4B7+P0DPH7+P68366+Q13509+Q71U36+P04350+Q3ZCM7+P07437+P68363+Q9BQE3+Q6PEY2+Q13885+Q9BVA1+Q9BUF5); assay: Induction of microtubule stabilization in human HeLa cells assessed as microtubule bundling at 0.5 to 1 uM for 24 hrs by DAPI staining based fluorescence microscopy; format: cell-based; conditions: dose 0.5-1 µM, DDE = dose-dependent effect
Tubulin (Homo sapiens) [11] = molecular target: T1, Tubulin (Homo sapiens); assay: Induction of microtubule stabilization in human HeLa cells assessed as increase in alpha-tubulin level in cell pellet at 0.5 to 1 uM for 48 hrs by Western blot analysis; format: cell-based; conditions: dose 0.5-1 µM, DDE = dose-dependent effect
Tubulin (Homo sapiens) [12] = molecular target: T1, Tubulin (Homo sapiens); assay: Induction of microtubule stabilization in human HeLa cells assessed as microtubule bundling at 0.5 uM for 24 hrs by DAPI staining based fluorescence microscopy; format: cell-based
Tubulin (Homo sapiens) [13] = molecular target: T1, Tubulin (Homo sapiens); assay: Induction of microtubule stabilization in human HeLa cells assessed as increase in alpha-tubulin level in cell pellet at 0.5 uM for 48 hrs by Western blot analysis; format: cell-based; conditions: DDE = dose-dependent effect

| SMILES | IC50 (A549) [nM] | other results |
| --- | --- | --- |
| Cc1ccc(SC(=S)N2CCN(C(=O)OC(C)(C)C)CC2)cc1 | 2100 | – |
| CC(C)(C)OC(=O)N1CCN(C(=S)Sc2ccc(C(C)(C)C)cc2)CC1 | 769 | – |
| CC(C)(C)OC(=O)N1CCN(C(=S)Sc2ccc(Cl)cc2)CC1 | 1070 | – |
| CC(C)(C)OC(=O)N1CCN(C(=S)Sc2ccccc2)CC1 | 447 | IC50 (HeLa [1]): 432 nM; IC50 (MCF7): 1750 nM; IC50 (MDA-MB-231): 615 nM; Activity (HeLa [2]): Dde; Activity (HeLa [3]): Dde; fold change (FC) (HeLa [4]): 3; fold change (FC) (HeLa [5]): 4; fold change (FC) (HeLa [6]): 4; Activity (HeLa [7]): Dde; Activity (HeLa [8]): Dde; Activity (HeLa [9]): Active; Activity (Tubulin (Homo sapiens) [10]): Dde; Activity (Tubulin (Homo sapiens) [11]): Dde |
| CC(C)(C)OC(=O)N1CCN(C(=S)Sc2ccccc2Cl)CC1 | 1560 | – |
| CC(C)(C)c1ccc(SC(=S)N2CCCCC2)cc1 | 9130 | – |
| S=C(Sc1ccccc1)N1CCCCC1 | 7930 | – |
| CC(C)(C)OC(=O)N1CCN(C(=S)Sc2ccc(F)cc2)CC1 | 1560 | – |
| Cc1cccc(SC(=S)N2CCN(C(=O)OC(C)(C)C)CC2)c1 | 914 | – |
| Cc1ccccc1SC(=S)N1CCN(C(=O)OC(C)(C)C)CC1 | 2270 | – |
| CC(=O)O[C@H]1C(=O)[C@@]2(C)[C@H]([C@H](OC(=O)c3ccccc3)[C@]3(O)C[C@H](OC(=O)[C@H](O)[C@@H](NC(=O)c4ccccc4)c4ccccc4)C(C)=C1C3(C)C)[C@]1(OC(C)=O)CO[C@@H]1C[C@@H]2O | – | Activity (Tubulin (Homo sapiens) [12]): Active; Activity (Tubulin (Homo sapiens) [13]): Dde |
| S=C(Sc1ccccc1)N1CCOCC1 | 2520 | – |

The next lines start with results.

| IC50 (A549) [nM] | SMILES | other results |
| --- | --- | --- |
| 1460 | Cc1cc(C)c(SC(=S)N2CCN(C(=O)OC(C)(C)C)CC2)c(C)c1 | – |
| 712 | COc1ccc(SC(=S)N2CCN(C(=O)OC(C)(C)C)CC2)cc1 | – |
| 539 | Cc1ccc(C)c(SC(=S)N2CCN(C(=O)OC(C)(C)C)CC2)c1 | – |
| 9760 | CCCCN(CCCC)C(=S)Sc1ccccc1 | – |
| 1820 | CC(C)(C)OC(=O)N1CCN(C(=S)Sc2ccc(Br)cc2)CC1 | – |
| 634 | CC(C)(C)OC(=O)N1CCN(C(=S)Sc2cccc(Cl)c2)CC1 | – |
